Values of other authors as cited in patent publication US20220331292A1, “COMPOSITIONS AND METHODS FOR DELIVERY OF PSILOCIN AND PRODRUGS THEREOF” (priority 2021, published 2022).

What was measured:
[1] = biological target: 5-HT2a serotonin receptor (Homo sapiens, UniProt P28223)
[2] = not given; remark: listed apart in the source
[3] = psilocin after escalating doses of psilocybin

Chain of 5-HT2a serotonin receptor (P28223 whole entry): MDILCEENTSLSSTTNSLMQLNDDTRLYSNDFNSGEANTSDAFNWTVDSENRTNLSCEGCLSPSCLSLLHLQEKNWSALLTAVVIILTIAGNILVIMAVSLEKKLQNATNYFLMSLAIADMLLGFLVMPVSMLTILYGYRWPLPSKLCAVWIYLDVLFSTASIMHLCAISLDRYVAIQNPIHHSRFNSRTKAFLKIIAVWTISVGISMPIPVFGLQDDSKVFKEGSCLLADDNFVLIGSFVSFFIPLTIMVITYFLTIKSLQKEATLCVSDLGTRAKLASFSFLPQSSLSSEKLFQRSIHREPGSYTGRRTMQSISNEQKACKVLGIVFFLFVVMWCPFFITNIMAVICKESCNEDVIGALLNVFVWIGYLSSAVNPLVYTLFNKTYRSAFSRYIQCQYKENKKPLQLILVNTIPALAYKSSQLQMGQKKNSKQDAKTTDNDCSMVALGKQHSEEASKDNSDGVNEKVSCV

Row | SMILES | binding affinity with 5-HT2a [1] | half-life [3] | pharmacokinetics (linearity) [3] | share of metabolized psilocybin excreted in the urine as psilocin-O-glucuronide [2] | serious physical or psychological events (oral 0.3, 0.45 and 0.6 mg/kg at monthly intervals, during or within 30 days of any dose)
1 | CN(C)CCc1c[nH]c2cccc(O)c12 [Psilocin, psilocin] | high binding affinity | three | linear |  | 
2 | CN(C)CCc1c[nH]c2cccc(OP(=O)(O)O)c12 [Psilocybin, psilocybin] |  |  |  | About 80% | no serious physical or psychological events
